These results are taken from patent US12258328B2, “6-membered heteroaryl-containing aminopyridine compounds as EGFR inhibitors” (YUHAN CORPORATION, priority 2021, dated 2025).

Where two headings read alike, the source gives them in different places.

One assay addresses EGFR del19/T790M/C797S (Homo sapiens, UniProt P00533, C797S/DEL746-750/T790M). The experiment in a line: Biochemical EGFR kinase assay (Lance Ultra TR-FRET), triple mutant del19/T790M/C797S. The method, boiled down: (§1)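 In this biochemical assay, phosphorylation after a one-hour room-temperature reaction was detected with europium-labelled anti-phosphopeptide antibody at 2 nM final concentration.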
(TR-FRET usually uses a lanthanide donor and a delayed reading to cut background.)

The target of the next assay is EGFR del19/C797S (Homo sapiens, UniProt P00533, C797S/DEL746-750). The experiment in a line: Biochemical EGFR kinase assay (Lance Ultra TR-FRET), double mutant del19/C797S. The method, boiled down: as §1
The next assay deals with EGFR wildtype (Homo sapiens, UniProt P00533). The experiment in a line: Biochemical EGFR kinase assay (Lance Ultra TR-FRET), wildtype. In short, it runs like this: as §1
The target in a further assay is EGFR L858R/T790M/C797S (Homo sapiens, UniProt P00533, C797S/L858R/T790M). The experiment in a line: Biochemical EGFR kinase assay (Lance Ultra TR-FRET), triple mutant L858R/T790M/C797S. The method, boiled down: as §1
In a further assay the target is EGFR L858R/C797S (Homo sapiens, UniProt P00533, C797S/L858R). The experiment in a line: Biochemical EGFR kinase assay (Lance Ultra TR-FRET), double mutant L858R/C797S. In short, it runs like this: as §1
The mark [1] stands for this setting: IC50 del19/T790M/C797S (nM) 100 μM ATP, 100 μM ATP.
[2] abbreviates: Km ATP, read-out: IC50 del19/T790M/C797S (nM) Km ATP.
The mark [3] stands for this setting: IC50 del19/C797S (nM) 100 μM ATP, 100 μM ATP.
[4] abbreviates: Km ATP, read-out: IC50 del19/C797S (nM) Km ATP.
Setting [5] is: IC50 WT (nM) 100 μM ATP, 100 μM ATP.
[6] abbreviates: Km ATP, read-out: IC50 WT (nM) Km ATP.
Where [7] appears, read: IC50 L858R/T790M/C797S (nM) 100 μM ATP, 100 μM ATP.
Where [8] appears, read: Km ATP, read-out: IC50 L858R/T790M/C797S (nM) Km ATP.
[9] abbreviates: Km ATP, read-out: IC50 L858R/C797S (nM) Km ATP.
Setting [10] is: IC50 L858R/C797S (nM) 100 μM ATP, 100 μM ATP.

Chain of EGFR del19/T790M/C797S (P00533 with tags, fused parts or gaps DEL746-750/T790M/C797S): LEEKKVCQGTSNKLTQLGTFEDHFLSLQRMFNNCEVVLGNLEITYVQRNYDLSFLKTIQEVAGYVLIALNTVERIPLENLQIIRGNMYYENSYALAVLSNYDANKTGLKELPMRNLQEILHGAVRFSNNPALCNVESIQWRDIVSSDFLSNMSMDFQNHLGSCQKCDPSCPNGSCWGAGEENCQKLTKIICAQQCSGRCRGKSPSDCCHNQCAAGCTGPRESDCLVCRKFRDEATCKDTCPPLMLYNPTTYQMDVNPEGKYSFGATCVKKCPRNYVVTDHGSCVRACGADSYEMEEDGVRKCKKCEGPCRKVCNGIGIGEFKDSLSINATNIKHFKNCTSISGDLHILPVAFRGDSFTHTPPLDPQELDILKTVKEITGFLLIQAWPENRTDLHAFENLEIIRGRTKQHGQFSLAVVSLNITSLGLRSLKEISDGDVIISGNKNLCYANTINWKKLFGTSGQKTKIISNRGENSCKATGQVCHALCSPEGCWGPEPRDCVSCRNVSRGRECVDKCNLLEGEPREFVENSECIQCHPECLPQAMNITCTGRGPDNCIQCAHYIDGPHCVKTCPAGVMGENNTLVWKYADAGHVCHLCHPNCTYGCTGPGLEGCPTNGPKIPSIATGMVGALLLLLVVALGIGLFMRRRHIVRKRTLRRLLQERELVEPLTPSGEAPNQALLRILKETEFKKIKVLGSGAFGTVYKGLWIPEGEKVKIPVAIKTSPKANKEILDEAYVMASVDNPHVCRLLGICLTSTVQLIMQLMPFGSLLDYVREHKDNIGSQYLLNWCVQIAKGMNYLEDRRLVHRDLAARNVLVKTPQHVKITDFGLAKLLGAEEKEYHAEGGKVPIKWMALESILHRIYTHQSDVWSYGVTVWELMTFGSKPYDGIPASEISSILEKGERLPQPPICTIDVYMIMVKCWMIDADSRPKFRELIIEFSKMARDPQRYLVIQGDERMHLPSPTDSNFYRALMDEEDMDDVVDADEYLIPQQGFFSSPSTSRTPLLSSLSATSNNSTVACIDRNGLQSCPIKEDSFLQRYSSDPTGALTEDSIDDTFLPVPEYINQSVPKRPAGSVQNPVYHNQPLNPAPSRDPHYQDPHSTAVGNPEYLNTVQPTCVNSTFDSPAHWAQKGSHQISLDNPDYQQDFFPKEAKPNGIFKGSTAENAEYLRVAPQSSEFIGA
Chain of EGFR wildtype (P00533 25-1210): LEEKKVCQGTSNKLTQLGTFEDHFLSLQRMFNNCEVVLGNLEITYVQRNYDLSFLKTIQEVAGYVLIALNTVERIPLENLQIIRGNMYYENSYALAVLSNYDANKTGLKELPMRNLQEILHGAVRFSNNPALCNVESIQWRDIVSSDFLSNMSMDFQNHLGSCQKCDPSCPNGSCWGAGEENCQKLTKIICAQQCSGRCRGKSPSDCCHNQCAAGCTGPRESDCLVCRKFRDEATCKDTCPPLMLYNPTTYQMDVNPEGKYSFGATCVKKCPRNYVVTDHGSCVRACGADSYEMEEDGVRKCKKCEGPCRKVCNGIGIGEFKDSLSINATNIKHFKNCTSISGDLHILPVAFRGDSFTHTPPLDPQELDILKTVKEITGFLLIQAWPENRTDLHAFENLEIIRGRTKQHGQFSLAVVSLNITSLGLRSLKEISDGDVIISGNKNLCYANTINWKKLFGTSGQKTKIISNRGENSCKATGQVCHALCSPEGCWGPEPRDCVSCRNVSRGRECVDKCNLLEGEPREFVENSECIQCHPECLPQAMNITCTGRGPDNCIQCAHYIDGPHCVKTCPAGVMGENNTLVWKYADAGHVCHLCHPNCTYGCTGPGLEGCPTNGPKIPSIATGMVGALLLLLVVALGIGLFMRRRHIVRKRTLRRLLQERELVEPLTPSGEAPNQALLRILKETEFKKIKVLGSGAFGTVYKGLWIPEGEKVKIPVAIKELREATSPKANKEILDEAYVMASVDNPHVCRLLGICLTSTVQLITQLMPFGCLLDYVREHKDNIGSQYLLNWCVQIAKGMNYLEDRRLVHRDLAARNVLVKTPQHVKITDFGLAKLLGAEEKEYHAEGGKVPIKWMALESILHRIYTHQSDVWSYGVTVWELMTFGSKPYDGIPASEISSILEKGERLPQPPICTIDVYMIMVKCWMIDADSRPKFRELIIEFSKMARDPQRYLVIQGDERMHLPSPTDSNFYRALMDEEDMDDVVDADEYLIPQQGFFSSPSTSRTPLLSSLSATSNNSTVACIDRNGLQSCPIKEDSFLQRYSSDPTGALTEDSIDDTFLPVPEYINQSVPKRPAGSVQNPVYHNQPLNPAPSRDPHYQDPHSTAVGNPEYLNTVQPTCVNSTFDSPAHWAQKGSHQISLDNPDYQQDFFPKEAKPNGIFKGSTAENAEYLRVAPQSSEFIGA
Chain of EGFR L858R/T790M/C797S (P00533 25-1210 T790M/C797S/L858R): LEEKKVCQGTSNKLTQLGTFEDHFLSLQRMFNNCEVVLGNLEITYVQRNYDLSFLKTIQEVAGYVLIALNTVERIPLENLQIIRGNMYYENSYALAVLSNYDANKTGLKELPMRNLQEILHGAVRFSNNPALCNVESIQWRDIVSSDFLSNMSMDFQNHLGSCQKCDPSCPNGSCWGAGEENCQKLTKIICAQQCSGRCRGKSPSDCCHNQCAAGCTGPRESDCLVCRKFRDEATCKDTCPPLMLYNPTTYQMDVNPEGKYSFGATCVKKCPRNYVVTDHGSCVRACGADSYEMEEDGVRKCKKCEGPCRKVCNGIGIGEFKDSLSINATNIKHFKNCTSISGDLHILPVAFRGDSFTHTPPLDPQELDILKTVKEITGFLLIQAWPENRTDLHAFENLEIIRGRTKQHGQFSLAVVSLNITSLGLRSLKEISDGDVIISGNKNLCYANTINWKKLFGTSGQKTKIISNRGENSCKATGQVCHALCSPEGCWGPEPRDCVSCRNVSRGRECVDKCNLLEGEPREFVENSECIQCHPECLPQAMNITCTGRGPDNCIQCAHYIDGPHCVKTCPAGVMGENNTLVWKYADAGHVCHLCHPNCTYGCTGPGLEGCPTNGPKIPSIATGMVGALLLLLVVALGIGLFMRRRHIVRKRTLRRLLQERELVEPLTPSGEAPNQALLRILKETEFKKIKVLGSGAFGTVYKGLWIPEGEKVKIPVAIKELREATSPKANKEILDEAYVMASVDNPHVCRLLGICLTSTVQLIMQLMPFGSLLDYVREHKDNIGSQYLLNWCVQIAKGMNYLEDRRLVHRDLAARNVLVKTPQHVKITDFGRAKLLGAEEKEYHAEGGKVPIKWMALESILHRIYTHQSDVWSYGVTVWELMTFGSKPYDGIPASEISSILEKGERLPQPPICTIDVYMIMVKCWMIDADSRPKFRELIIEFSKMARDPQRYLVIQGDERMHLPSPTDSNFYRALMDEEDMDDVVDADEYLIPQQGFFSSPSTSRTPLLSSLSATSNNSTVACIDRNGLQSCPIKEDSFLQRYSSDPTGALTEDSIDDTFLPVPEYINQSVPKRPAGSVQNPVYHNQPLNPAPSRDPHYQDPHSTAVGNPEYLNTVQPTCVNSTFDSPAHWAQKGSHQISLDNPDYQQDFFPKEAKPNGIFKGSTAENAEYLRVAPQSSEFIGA
Chain of EGFR L858R/C797S (P00533 25-1210 C797S/L858R): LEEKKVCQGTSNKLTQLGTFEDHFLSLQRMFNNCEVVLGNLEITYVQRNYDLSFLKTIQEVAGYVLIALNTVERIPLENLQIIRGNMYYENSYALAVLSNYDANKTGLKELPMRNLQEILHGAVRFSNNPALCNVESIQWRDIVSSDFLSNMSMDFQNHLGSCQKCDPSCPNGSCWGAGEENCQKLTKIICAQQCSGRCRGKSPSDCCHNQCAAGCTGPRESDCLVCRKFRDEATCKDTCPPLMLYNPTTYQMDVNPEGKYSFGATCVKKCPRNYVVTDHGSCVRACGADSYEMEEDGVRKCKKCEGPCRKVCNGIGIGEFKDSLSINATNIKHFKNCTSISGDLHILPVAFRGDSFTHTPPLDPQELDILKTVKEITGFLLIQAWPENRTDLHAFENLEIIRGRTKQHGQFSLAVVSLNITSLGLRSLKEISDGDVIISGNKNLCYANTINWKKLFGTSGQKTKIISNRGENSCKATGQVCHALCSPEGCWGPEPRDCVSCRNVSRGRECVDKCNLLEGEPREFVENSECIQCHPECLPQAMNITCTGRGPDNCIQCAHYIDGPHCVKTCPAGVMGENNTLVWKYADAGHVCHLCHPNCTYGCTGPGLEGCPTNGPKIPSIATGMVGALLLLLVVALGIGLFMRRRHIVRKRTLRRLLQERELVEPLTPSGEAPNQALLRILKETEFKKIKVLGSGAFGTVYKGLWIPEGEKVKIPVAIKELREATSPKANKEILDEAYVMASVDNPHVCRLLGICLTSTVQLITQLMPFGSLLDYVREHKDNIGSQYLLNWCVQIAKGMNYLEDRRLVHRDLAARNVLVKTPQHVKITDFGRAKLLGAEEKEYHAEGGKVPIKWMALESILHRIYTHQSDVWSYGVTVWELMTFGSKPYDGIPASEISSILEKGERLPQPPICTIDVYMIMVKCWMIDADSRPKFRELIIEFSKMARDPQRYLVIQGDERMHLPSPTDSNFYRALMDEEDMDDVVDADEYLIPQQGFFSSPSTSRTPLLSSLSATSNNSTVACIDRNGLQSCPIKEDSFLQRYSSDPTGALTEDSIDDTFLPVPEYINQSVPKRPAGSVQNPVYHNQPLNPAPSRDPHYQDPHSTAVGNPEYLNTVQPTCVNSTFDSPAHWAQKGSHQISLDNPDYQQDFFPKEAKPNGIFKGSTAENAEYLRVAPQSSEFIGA

`Cc1ccc(-c2cnc(Nc3ccnc(-c4cnn(S(=O)(=O)C5CC5)c4)n3)cc2N[C@H]2CC[C@@](C)(O)CC2)nn1` [Example 52, (1s,4s)-4-((2-((2-(1-(Cyclopropylsulfonyl)-1H-pyrazol-4-yl)pyrimidin-4-yl)amino)-5-(6-methylpyridazin-3-yl)pyridin-4-yl)amino)-1-methylcyclohexan-1-ol]: the IC50 is 0.5 nM at EGFR del19/T790M/C797S (setting [1]); 0.3 nM on EGFR del19/T790M/C797S (setting [2]); 0.6 nM at EGFR del19/C797S (setting [3]); 0.5 nM at EGFR del19/C797S (setting [4]); > 10000 nM on EGFR wildtype (setting [5]); 3 nM on EGFR wildtype (setting [6]). Besides, the values for the IC50 against EGFR L858R/T790M/C797S (setting [7]), on EGFR L858R/T790M/C797S (setting [8]) and at EGFR L858R/C797S (setting [9]) were 0.3 nM, 0.1 nM and 0.6 nM, respectively.
Consider `C[C@]1(O)CC[C@@H](Nc2cc(Nc3ccnc(-c4cnn(S(=O)(=O)C5CC5)c4)n3)ncc2-c2cccc(CO)n2)CC1` [Example 27, (1s,4s)-4-((6′-((2-(1-(Cyclopropylsulfonyl)-1H-pyrazol-4-yl)pyrimidin-4-yl)amino)-6-(hydroxymethyl)-[2,3′-bipyridin]-4′-yl)amino)-1-methylcyclohexan-1-ol], for which the IC50 stood at 0.3 nM against EGFR del19/T790M/C797S (setting [1]); 0.3 nM on EGFR del19/T790M/C797S (setting [2]); 0.3 nM against EGFR del19/C797S (setting [3]); 0.1 nM on EGFR del19/C797S (setting [4]); 370 nM on EGFR wildtype (setting [5]); 1.7 nM on EGFR wildtype (setting [6]). Moreover, the IC50 against EGFR L858R/T790M/C797S (setting [7]) was found to be 0.4 nM; on EGFR L858R/T790M/C797S (setting [8]), 0.2 nM; against EGFR L858R/C797S (setting [10]), 1.6 nM; at EGFR L858R/C797S (setting [9]) it was 0.1 nM.
Consider `CN1CCN(Cc2cnc(-c3cnc(Nc4ccnc(-c5cnn(S(=O)(=O)C6CC6)c5)n4)cc3N[C@H]3CC[C@@](C)(O)CC3)cn2)CC1` [Example 62, (1s,4s)-4-((2-((2-(1-(Cyclopropylsulfonyl)-1H-pyrazol-4-yl)pyrimidin-4-yl)amino)-5-(5-((4-methylpiperazin-1-yl)methyl)pyrazin-2-yl)pyridin-4-yl)amino)-1-methylcyclohexan-1-ol], for which the IC50 came out at 0.1 nM on EGFR del19/T790M/C797S (setting [1]); 0.2 nM at EGFR del19/C797S (setting [3]); 745 nM against EGFR wildtype (setting [5]); 0.1 nM against EGFR L858R/T790M/C797S (setting [7]); 0.9 nM at EGFR L858R/C797S (setting [10]).
`CN(C)C[C@H]1CC[C@@H](Nc2cc(Nc3ccnc(-c4cnn(S(=O)(=O)C5CC5)c4)n3)ncc2-c2cnc(OC(F)F)cn2)CC1` [Example 131, N^2-(2-(1-(Cyclopropylsulfonyl)-1H-pyrazol-4-yl)pyrimidin-4-yl)-5-(5-(difluoromethoxy)pyrazin-2-yl)-N^4-((1s,4s)-4-((dimethylamino)methyl)cyclohexyl)pyridine-2,4-diamine]: the IC50 is 0.2 nM at EGFR del19/T790M/C797S (setting [2]); 2.1 nM at EGFR del19/C797S (setting [4]); 8.1 nM on EGFR wildtype (setting [6]); 0.1 nM at EGFR L858R/T790M/C797S (setting [8]); 2.2 nM at EGFR L858R/C797S (setting [9]).
Consider `O=S(=O)(C1CC1)n1cc(-c2nccc(Nc3cc(N[C@H]4CC[C@@H](CO)CC4)c(-c4ccc(CO)cn4)cn3)n2)cn1` [Example 22, (6′-((2-(1-(Cyclopropylsulfonyl)-1H-pyrazol-4-yl)pyrimidin-4-yl)amino)-4′-(((1s,4s)-4-(hydroxymethyl)cyclohexyl)amino)-[2,3′-bipyridin]-5-yl)methanol], for which the IC50 came out at 0.3 nM against EGFR del19/T790M/C797S (setting [1]); 0.3 nM at EGFR del19/T790M/C797S (setting [2]); 0.2 nM against EGFR del19/C797S (setting [3]); 0.1 nM at EGFR del19/C797S (setting [4]); 165 nM at EGFR wildtype (setting [5]); 0.3 nM on EGFR wildtype (setting [6]). Also, the IC50 at EGFR L858R/T790M/C797S (setting [7]) turned out to be 0.2 nM; on EGFR L858R/T790M/C797S (setting [8]), 0.2 nM; at EGFR L858R/C797S (setting [10]), 1.1 nM; on EGFR L858R/C797S (setting [9]) it was 0.2 nM.
On to `C[C@]1(O)CC[C@@H](Nc2cc(Nc3ccnc(-c4cnn(S(=O)(=O)C5CC5)c4)n3)ncc2-c2ccc(OC(F)F)cn2)CC1` [Example 332, (1s,4s)-4-((6′-((2-(1-(Cyclopropylsulfonyl)-1H-pyrazol-4-yl)pyrimidin-4-yl)amino)-5-(difluoromethoxy)-[2,3′-bipyridin]-4′-yl)amino)-1-methylcyclohexan-1-ol], for which the IC50 on EGFR del19/T790M/C797S (setting [2]) came out at 1.6 nM; on EGFR del19/C797S (setting [4]) it was 2.4 nM; at EGFR wildtype (setting [6]) it was 21 nM; on EGFR L858R/T790M/C797S (setting [8]), 0.7 nM; on EGFR L858R/C797S (setting [9]), 1.8 nM.
